The source of these data is patent US7776918B2, “Remedy for viral disease” (Chugai Seiyaku Kabushiki Kaisha, priority 2003, dated 2010).

A short description of data set [1]: Cytotoxicity test (Cell Counting Kit-8). The data set is classed as cell-based. As to conditions: human, Firefly luciferase HCV replicon cells (3-1); Cell Counting Kit-8, absorbance 450 nm, after 3 days culture with compound. The protocol:
(§1) Firefly luciferase HCV replicon cells (3-1) were suspended in Dulbecco's MEM (Gibco Cat. No. 10569-010) containing 5% fetal calf serum (Hyclone Cat. No. SH30071.03) and inoculated into a 96-well plate at 5000 cells/well followed by culturing overnight at 5% CO2 and 37° C. After about 20 hours, 10 μl of a diluted compound was added to each well followed by additional culturing for 3 days. Two series of the assay plates were prepared, and assay was conducted using white plates for one series while using clear plates for the other series. Following completion of culturing, the white plates were used with the Steady-Glo Luciferase Assay System (Promega Cat. No. E2520). More specifically, 100 μl of reagent was placed in each well and after mixing 3 to 4 times with a pipette and allowing to stand for 5 minutes, luminescence was measured with the 1450 MicroBeta TRILUX (WALLAC). The value in the absence of cell addition was used to indicate the background value, and that value was subtracted from all values to calculate the IC50 value (concentration resulting in 50% inhibition) of the drug based on 0% inhibition for the value obtained in the absence of drug addition.
(§2) The Cell Counting Kit-8 (Dojindo Cat. No. CK04) was used for measurement of cytotoxicity. More specifically, 10 μl of the Cell Counting Kit-8 was added to the clear plates followed by incubating at 37° C. for 30 to 60 minutes. Absorbance at a wavelength of 450 nm and control wavelength of 630 nm was measured with a 96-well plate reader. The value obtained in the absence of cell addition was used as a background value, and that value was subtracted from all values to calculate the CC50 value (concentration resulting in 50% cell inhibition) of the drug based on 0% inhibition for the value obtained in the absence of drug addition.
(Tetrazolium assays rely on reduction of a dye to a coloured formazan, in cell work by metabolically active cells.)

The test system of data set [2] is Firefly luciferase HCV replicon cells (3-1). Put plainly: Replicon assay (firefly luciferase HCV replicon). Type of data set: cell-based. As to conditions: Hepatitis C virus, 72 h; luciferase luminescence after 3 days culture with compound, Huh7-derived replicon cells. The protocol:
A construct was prepared in which luciferase gene derived from firefly was inserted as a reporter gene in HCV-RNA to assay the number of copies of HCV-RNA. The luciferase gene was inserted in a form that fuses with the neomycin resistance gene directly below IRES (Internal Ribosome Entry Site) of HCV gene in accordance with the method of Krieger, et al. (J. Virol. 75: 4614). After synthesizing the RNA in vitro, it was introduced into Huh7 cells by electroporation followed by isolation as G418 resistant clone.
as §1

Data set [3] deals with Candida albicans. As to conditions: known from WO98/56755; cited from earlier work.
Data set [4] relates to Cryptococcus neoformans. As to conditions: known from WO98/56755; cited from earlier work.
Data set [5] relates to immune reactions. Conditions: known from WO98/56755; cited from earlier work.
The subject of data set [6] is Firefly luciferase HCV replicon cells (3-1). Put plainly: Cytotoxicity test (Cell Counting Kit-8). Type of data set: cell-based. Conditions: Cell Counting Kit-8, absorbance 450 nm, after 3 days culture with compound. The protocol:
as §1, §2

With `CCCCCCCC(=O)CCCCCC/C=C/[C@H](C(=O)N[C@@H](Cc1ccc(O)cc1)C(=O)O)[C@@](O)(CC(=O)O)C(=O)O` [Compound 9], the CC50 at 3 days in data set [1] was more than 5 µM. Moreover, the IC50 in data set [2] came to 0.02 µM.

In the case of `CCCCCCCC(O)CCCCCC/C=C/[C@H](C(=O)N[C@@H](Cc1ccc(OCC=C(C)C)cc1)C(=O)O)[C@@](O)(CC(=O)O)C(=O)O` (stereo partly shown) [Compound 8], the CC50 at 3 days in data set [1] was more than 5 µM. Moreover, the IC50 in data set [2] came to 0.005 µM.

`CCCCCCC(O)C(=O)CCCCCC/C=C/[C@H](C(=O)N[C@@H](Cc1ccc(OCC=C(C)C)cc1)C(=O)O)[C@@](O)(CC(=O)O)C(=O)O` (stereo partly shown) [Compound 6]: the CC50 at 3 days in data set [1] is more than 1 µM. Also, in data set [2], the IC50 worked out at 0.007 µM.

On to `C=CCOc1ccc(C[C@H](NC(=O)[C@@H](/C=C/CCCCCCC(=O)CCCCCCC)[C@@](O)(CC(=O)O)C(=O)O)C(=O)O)cc1` [Compound 25], for which the CC50 at 3 days in data set [1] was more than 1 µM. Besides, in data set [2], the IC50 came to 0.001 µM.

As to `CCCCCCC(O)C(=O)CCCCCC/C=C/[C@H](C(=O)N[C@@H](Cc1ccc(O)cc1)C(=O)O)[C@@](O)(CC(=O)O)C(=O)O` (stereo partly shown) [Compound 4], in data set [1], the half-maximal cytotoxic concentration (CC50) at 3 days was more than 1 µM. Further, the IC50 in data set [2] stood at 0.103 µM.

Consider `CCCCCCC/C(CCCCCC/C=C/[C@H](C(=O)N[C@@H](Cc1ccc(OCC=C(C)C)cc1)C(=O)O)[C@@](O)(CC(=O)O)C(=O)O)=N/OCCN` [Compound 14], for which the CC50 at 3 days in data set [1] was 22 µM. Further, the IC50 in data set [2] was found to be 0.02 µM.

Turning to `CCCCCCCC(=O)CCCCCC/C=C/[C@H](C(=O)N[C@@H](Cc1ccc(OCCCC)cc1)C(=O)O)[C@@](O)(CC(=O)O)C(=O)O` [Compound 23], the half-maximal cytotoxic concentration (CC50) at 3 days in data set [1] is more than 1 µM. The IC50 in data set [2] is 0.001 µM.

`CCCCCCCC(=O)CCCCCC/C=C/[C@H](C(=O)N[C@@H](Cc1ccc(OCC=C(C)C)cc1)C(N)=O)[C@@](O)(CC(N)=O)C(N)=O` [Compound 11]: in data set [1], the CC50 at 3 days is more than 5 µM. In addition, the IC50 in data set [2] amounted to 0.262 µM.

Consider `CCCCCCCC(=O)CCCCCC/C=C/[C@H](C(=O)N[C@@H](Cc1ccc(OCCC(C)C)cc1)C(=O)O)[C@@](O)(CC(=O)O)C(=O)O` [Compound 7], for which the CC50 at 3 days in data set [1] was more than 5 µM. Further, in data set [2], the IC50 was 0.002 µM.

With `CCCCCCCC(=O)CCCCCCCC[C@H](C(=O)N[C@@H](Cc1ccc(OCCC(C)C)cc1)C(=O)O)[C@@](O)(CC(=O)O)C(=O)O` [Compound 12], in data set [1], the CC50 at 3 days is more than 5 µM. The IC50 in data set [2] came out at 0.072 µM.

Consider `CCCCCCCC(=O)CCCCCC/C=C/[C@H](C(=O)N[C@@H](Cc1ccc(OCCC)cc1)C(=O)O)[C@@](O)(CC(=O)O)C(=O)O` [Compound 24], for which, in data set [1], the half-maximal cytotoxic concentration (CC50) at 3 days was more than 1 µM. Further, in data set [2], the IC50 turned out to be 0.002 µM.

On to `CCCCCCCC(=O)CCCCCC/C=C/[C@H](C(=O)N[C@@H](Cc1c[nH]c2ccccc12)C(=O)O)[C@@](O)(CC(=O)O)C(=O)O` [Compound 5], for which, in data set [1], the CC50 at 3 days was more than 1 µM. In addition, in data set [2], the IC50 came to 0.082 µM.

Take `CCCCCCCC(=O)CCCCCC/C=C/[C@H](C(=O)N[C@@H](Cc1ccc(OCC=C(C)C)cc1)C(=O)O)[C@@](O)(CC(=O)O)C(=O)O` [Compound 1]: in data set [3], the “antimicrobial activity against Candida albicans” value is “antimicrobial activity”. Further, the CC50 at 3 days in data set [1] is more than 5 µM. Further, the “antimicrobial activity against Cryptococcus neoformans” value in data set [4] is reported as “antimicrobial activity”. Besides, the IC50 in data set [2] came out at 0.002 µM. In addition, the “effects that inhibit immune reactions” value in data set [5] was “inhibit immune reactions”.

With `CCCCCCCC(=O)CCCCCCCC[C@H](C(=O)N[C@@H](Cc1ccc(O)cc1)C(=O)O)[C@@](O)(CC(=O)O)C(=O)O` [Compound 10], the CC50 at 3 days in data set [1] is more than 50 µM. Also, the IC50 in data set [2] is 0.245 µM.

As for `CCCCCCCC(CCCCCC/C=C/[C@H](C(=O)N[C@@H](Cc1ccc(OCC=C(C)C)cc1)C(=O)O)[C@@](O)(CC(=O)O)C(=O)O)=NOC` [Compound 15], the CC50 at 3 days in data set [1] was more than 50 µM. Moreover, the IC50 in data set [2] was 0.02 µM.

In the case of `CC#CCOc1ccc(C[C@H](NC(=O)[C@@H](/C=C/CCCCCCC(=O)CCCCCCC)[C@@](O)(CC(=O)O)C(=O)O)C(=O)O)cc1` [Compound 21], the CC50 in data set [6] is more than 5 µM.

Turning to `CCCCCCCC(=O)CCCCCC/C=C/[C@H](C(=O)N[C@@H](Cc1ccc(OCC=C(C)C)cc1)C(=O)OC)[C@@](O)(CC(=O)OC)C(=O)O` [Compound 3], in data set [1], the CC50 at 3 days was more than 1 µM. The half-maximal inhibitory concentration (IC50) in data set [2] is 0.076 µM.

Turning to `CCCCCCCCCCCCCC/C=C/[C@H](C(=O)N[C@@H](Cc1ccc(OCC=C(C)C)cc1)C(=O)O)[C@@](O)(CC(=O)O)C(=O)O` (mixture of isomers) [Compound 13], in data set [1], the CC50 at 3 days was more than 50 µM. In addition, the IC50 in data set [2] is 0.1 µM.

On to `CCCCCCCC(=O)CCCCCC/C=C/[C@H](C(=O)N[C@@H](Cc1ccc(OC)cc1)C(=O)O)[C@@](O)(CC(=O)O)C(=O)O` [Compound 26], for which the CC50 at 3 days in data set [1] was more than 1 µM. In addition, the IC50 in data set [2] came out at 0.003 µM.

As to `CCCCCCCC(=O)CCCCCC/C=C/[C@H](C(=O)N[C@@H](Cc1ccc(OCC=C(C)C)cc1)C(=O)O)[C@@](O)(CC(=O)OC)C(=O)O` [Compound 2], the CC50 at 3 days in data set [1] was more than 1 µM. The IC50 in data set [2] was 0.128 µM.

With `CCCCCCCC(=O)CCCCCC/C=C/[C@H](C(=O)N[C@@H](Cc1ccc(OC)c(OC)c1)C(=O)O)[C@@](O)(CC(=O)O)C(=O)O` [Compound 22], the CC50 in data set [6] is more than 1 µM.

One may read the CC50 as the concentration that lowers cell viability or growth by half. For orientation: IC50 means the concentration that inhibits the measured activity by half.
